This note sets out measurements from ChEMBL document CHEMBL1201862, “PubChem BioAssay data set” (2004).

Where a name gives a salt, the structure may show the parent alone. Calls of active or inactive are those of the source. Where only a bound is given, the exact number is not on record here.

Assay [1] has as its target T1, Fatty acid synthase (Homo sapiens, UniProt P49327). The assay is described as follows: inhibition of human FAS-TE enzyme activity – biochemical, endpoint fluorescence intensity, uHTS hits, dose response (AID 624327).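 Further: fluorescence from hydrolysis of an O-methyl fluorescein acyl ester substrate by the enzyme.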 The format is functional.
In assay [2] the target is T1, Fatty acid synthase. Nature of the assay: inhibition of human FAS-TE enzyme activity – biochemical, kinetic fluorescence intensity, dose response (AID 624326).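 Further: rate of fluorescence rise from hydrolysis of a fluorogenic O-methyl fluorescein ester substrate.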 The assay is classed as functional.
Assay [3] in a line: Luminescence Cell-Based Dose Retest to Confirm Inhibitors of Cancer Stem Cells. [Related pubchem assays (depositor defined):AID2717, AID2721]. The assay is classed as functional. Conditions: Homo sapiens.
In assay [4] the test system is INS1. Nature of the assay: INS-1E survival protection against cytokine death – cell-based, luminescence, retest, dose response (AID 449756).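 Further: cell death triggered by IL-1 beta plus TNF-alpha plus IFN-gamma mixture; protective hits raise ATP signal compared with cytokine alone wells.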 Conditions: Rattus norvegicus. The format is functional.
Assay [5] in a line: loss of viability in HepG2 cells – cell-based, CellTiter-Glo, cherry-picked, cytotoxicity control for Shn3 inhibitor project, dose response (AID 624134). The format is functional. On the technique in general: ATP-based viability assays read luminescence as a measure of living cells.
Assay [6] can be described thus: non-specific 3'UTR reporter inhibition in Clone20-Shn3RL – cell-based, Renilla luciferase, cherry-picked, counter-screen for Shn3 inhibitor project, dose response (AID 624133). The assay is classed as functional. Background: The purpose of a counterscreen is to sort out artefacts and off-target activity.
The nature of assay [7]: reduction of Shn3 3'UTR-driven luciferase in osteoblasts – cell-based, Clone20 osteoblasts, firefly luciferase, cherry-picked, dose response (AID 624132).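 Further: firefly luciferase luminescence from reporter carrying the Shn3 3'UTR in osteoblasts.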 The assay is classed as functional.
Assay [8] is described as follows: cells. The assay is classed as functional, cell-based.
The nature of assay [9]: cells. The format is functional, cell-based. The source holds these as a separate data set.
Assay [10] has as its target Nonstructural protein 1 (Influenza A virus, UniProt Q194T2). The format is functional, Influenza A virus (A/California/07/2009(H1N1)).
Assay [11] is described as follows: alpha-synuclein stem-loop luciferase translation blockers – H4 neuroglioma cells, luminescence, confirmation (AID 1988). The assay is classed as functional, cell-based.
A short description of assay [12]: luciferase reporter signal suppression in cells – H4 neuroglioma cells, luminescence, dose response (AID 1990). The format is functional, cell-based. A general note: Reporter assays use an easily measured gene product as a stand-in for the process of interest.
Assay [13] is described as follows: Luminescence Cell-Based Dose Response HTS to Identify Inhibitors of 5'UTR Stem-Loop Driven Prion Protein mRNA Translation in H4 Neuroglioblastoma Cells. [Related pubchem assays: 1827 (Project Summary), 1813 (Primary HTS)]. The format is functional.
For assay [14], the target named is T2, Cytochrome P450 3A4 (Homo sapiens, UniProt P08684). Conditions: Potency.
Assay [15] can be described thus: Luminescence Cell-Based Dose Confirmation HTS to Identify Inhibitors of Platelet Dense Granule Release. [Related pubchem assays: 1663 (Primary HTS), 1678 (Summary of Project)]. The format is functional.
Assay [16] has as its target Luciferin 4-monooxygenase (Photinus pyralis, UniProt P08659). Nature of the assay: inhibition of purified Photinus pyralis luciferase – biochemical, luminescence, dose response (AID 1891).
For assay [17], the target named is T2, Cytochrome P450 3A4.
Assay [18] deals with SN12K1. Nature of the assay: cells. The format is functional. As to conditions: Homo sapiens.
Assay [19] deals with P388/ADR. The assay is described as follows: cells. The assay is classed as functional. Conditions: Mus musculus.
Assay [20] relates to P388. Nature of the assay: cells. The assay is classed as functional. Conditions: Mus musculus.
The nature of assay [21]: Trypanosoma cruzi growth suppression in host cells – NIH3T3 host cells, beta-gal luminescence, confirmation (AID 2044).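 Further: intracellular parasites grown in NIH/3T3 mouse fibroblasts as host cells; luminescent beta-galactosidase reporter signal from transgenic T. cruzi replicating inside host cells; inhibitors lower the luminescence signal.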 The assay is classed as functional, cell-based.
Assay [22] can be described thus: NIH3T3 cell viability loss – ATP luminescence, mouse fibroblasts, counter-screen, dose response (AID 2010).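 Further: cells exposed to compound for about 90 hours before reading.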 The format is functional, cell-based.

T1 sequence (P49327 whole entry): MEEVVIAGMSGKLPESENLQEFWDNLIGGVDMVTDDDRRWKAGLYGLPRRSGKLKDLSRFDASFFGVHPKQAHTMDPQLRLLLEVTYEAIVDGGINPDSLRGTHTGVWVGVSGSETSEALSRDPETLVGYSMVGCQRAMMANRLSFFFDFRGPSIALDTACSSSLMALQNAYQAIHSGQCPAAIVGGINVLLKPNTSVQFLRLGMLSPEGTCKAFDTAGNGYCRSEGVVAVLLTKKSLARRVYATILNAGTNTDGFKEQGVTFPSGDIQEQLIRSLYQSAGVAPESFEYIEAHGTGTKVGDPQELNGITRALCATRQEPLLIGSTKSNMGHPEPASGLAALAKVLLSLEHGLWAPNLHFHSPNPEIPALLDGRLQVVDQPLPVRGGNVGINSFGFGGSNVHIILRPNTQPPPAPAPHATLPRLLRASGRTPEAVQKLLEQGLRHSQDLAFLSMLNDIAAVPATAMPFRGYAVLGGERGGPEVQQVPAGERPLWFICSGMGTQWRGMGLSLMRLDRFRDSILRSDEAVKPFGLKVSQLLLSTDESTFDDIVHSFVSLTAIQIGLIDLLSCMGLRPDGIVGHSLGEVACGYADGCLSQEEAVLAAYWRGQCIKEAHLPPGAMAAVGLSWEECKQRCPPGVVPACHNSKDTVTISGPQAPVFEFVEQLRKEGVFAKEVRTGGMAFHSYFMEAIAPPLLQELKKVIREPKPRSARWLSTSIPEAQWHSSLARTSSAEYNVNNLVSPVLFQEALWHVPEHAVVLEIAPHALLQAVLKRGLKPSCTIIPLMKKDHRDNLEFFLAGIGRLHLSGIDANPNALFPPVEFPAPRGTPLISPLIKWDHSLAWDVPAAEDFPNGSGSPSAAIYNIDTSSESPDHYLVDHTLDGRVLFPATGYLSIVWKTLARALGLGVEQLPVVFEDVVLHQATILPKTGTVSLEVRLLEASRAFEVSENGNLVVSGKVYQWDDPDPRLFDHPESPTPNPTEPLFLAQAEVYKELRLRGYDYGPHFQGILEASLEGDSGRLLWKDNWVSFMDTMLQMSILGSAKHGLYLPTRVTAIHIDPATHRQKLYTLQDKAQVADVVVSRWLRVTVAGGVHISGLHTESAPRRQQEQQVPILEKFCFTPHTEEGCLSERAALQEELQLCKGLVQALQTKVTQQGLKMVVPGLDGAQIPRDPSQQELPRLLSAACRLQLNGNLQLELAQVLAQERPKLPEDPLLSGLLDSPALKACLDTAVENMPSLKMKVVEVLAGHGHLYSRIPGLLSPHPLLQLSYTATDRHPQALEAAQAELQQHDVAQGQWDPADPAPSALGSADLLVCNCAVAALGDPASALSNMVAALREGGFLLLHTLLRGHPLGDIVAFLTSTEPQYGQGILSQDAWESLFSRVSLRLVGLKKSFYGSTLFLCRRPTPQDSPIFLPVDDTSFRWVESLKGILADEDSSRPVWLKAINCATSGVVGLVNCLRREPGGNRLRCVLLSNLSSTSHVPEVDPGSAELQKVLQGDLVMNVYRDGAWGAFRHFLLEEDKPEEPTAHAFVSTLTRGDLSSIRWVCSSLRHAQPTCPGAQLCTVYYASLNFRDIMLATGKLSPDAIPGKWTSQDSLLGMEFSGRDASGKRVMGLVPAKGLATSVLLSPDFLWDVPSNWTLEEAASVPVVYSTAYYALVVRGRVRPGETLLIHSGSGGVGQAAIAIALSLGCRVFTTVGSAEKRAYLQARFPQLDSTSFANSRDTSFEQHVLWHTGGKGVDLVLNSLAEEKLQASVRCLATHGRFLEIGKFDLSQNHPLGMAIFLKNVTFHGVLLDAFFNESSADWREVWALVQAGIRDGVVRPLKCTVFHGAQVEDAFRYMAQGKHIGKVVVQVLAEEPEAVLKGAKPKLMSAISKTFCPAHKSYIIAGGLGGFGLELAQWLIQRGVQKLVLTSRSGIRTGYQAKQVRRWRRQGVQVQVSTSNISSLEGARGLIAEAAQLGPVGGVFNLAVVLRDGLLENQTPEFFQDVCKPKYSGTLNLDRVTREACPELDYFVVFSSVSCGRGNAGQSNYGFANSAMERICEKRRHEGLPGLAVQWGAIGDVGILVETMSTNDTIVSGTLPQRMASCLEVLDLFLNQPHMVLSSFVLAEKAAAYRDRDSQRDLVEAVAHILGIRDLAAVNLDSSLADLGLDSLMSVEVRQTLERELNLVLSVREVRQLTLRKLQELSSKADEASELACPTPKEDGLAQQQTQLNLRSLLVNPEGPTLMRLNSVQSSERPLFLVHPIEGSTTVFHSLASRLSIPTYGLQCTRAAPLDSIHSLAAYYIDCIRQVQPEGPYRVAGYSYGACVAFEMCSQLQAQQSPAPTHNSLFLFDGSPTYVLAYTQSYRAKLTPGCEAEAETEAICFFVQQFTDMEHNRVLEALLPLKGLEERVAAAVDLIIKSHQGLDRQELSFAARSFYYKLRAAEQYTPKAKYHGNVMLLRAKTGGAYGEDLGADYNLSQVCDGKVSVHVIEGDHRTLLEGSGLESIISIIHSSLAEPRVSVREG
T2 sequence (P08684 whole entry): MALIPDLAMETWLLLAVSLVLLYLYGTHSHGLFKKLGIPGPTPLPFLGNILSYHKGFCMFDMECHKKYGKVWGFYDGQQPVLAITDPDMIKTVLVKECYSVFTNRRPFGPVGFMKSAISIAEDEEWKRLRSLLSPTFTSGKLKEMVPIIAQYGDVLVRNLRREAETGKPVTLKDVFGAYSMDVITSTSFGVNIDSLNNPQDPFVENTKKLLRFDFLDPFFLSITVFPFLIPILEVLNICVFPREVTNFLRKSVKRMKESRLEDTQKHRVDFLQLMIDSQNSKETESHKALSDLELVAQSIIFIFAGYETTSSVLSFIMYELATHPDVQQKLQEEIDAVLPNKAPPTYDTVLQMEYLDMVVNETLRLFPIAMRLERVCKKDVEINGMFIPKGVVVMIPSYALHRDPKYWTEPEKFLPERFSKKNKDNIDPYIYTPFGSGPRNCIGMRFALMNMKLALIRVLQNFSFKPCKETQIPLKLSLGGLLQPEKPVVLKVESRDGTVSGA
Chain of Nonstructural protein 1 (Q194T2 whole entry): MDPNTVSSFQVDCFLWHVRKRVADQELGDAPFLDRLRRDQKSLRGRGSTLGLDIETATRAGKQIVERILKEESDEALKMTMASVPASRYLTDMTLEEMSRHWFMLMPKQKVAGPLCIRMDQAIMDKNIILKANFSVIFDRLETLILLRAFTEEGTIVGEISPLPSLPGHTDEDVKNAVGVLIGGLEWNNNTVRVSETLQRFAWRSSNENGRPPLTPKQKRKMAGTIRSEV
Chain of Luciferin 4-monooxygenase (P08659 whole entry): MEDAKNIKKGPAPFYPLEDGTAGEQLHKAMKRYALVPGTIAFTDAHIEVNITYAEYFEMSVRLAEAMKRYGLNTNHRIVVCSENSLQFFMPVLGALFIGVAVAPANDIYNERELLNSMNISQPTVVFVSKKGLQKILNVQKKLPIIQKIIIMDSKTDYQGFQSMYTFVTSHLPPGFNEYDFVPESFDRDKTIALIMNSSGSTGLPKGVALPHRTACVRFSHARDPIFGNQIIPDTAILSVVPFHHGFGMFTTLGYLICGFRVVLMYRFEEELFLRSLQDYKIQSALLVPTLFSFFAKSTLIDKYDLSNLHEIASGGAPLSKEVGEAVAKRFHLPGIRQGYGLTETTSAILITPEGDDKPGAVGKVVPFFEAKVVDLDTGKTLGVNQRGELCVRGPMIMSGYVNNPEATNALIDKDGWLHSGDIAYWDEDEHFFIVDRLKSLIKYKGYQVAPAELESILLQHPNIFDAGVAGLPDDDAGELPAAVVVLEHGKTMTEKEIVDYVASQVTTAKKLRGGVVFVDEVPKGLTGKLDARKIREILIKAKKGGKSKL

For orientation: IC50 means the concentration that inhibits the measured activity by half. For `O=C(COC(=O)c1cc([N+](=O)[O-])ccc1N1CCOCC1)Nc1c(Cl)cccc1Cl`, the IC50 in assay [1] was 7.85 µM (active); in assay [2] it was 6.21 µM (active).
What is called AC50 is the concentration at which the activity in the assay is half-maximal. As for `O=C(/C=C/c1c[nH]c2ccccc12)c1cccc2ccccc12`, the AC50 in assay [3] is 2.92 µM (active).
For `Cc1cc(N2CCCC2=O)cc(C)c1S(=O)(=O)NCCOc1ccc(C(C)(C)C)cc1`, the AC50 in assay [4] is 2.58 µM (active); in [5], 51.4 µM (active); in assay [6], 2.36 µM (active); in assay [7], 1.15 µM (active).
The term EC50 denotes the concentration needed to bring the measured effect to its halfway point. Turning to `CCOC(=O)N1CCN(C(=O)c2ccc(Cn3c(=S)[nH]c4cc(OCC)c(OCC)cc4c3=O)cc2)CC1`, the EC50 in assay [8] and in assay [9] was > 350 µM (not active) in each case.
Turning to `CC(C)(C)c1cc(CSC(S)=NC2CCS(=O)(=O)C2)c(Br)c(C(C)(C)C)c1` (stereo unspecified), the AC50 in [3] is 3.19 µM (active).
For the compound `O=C1[C@@H]2Cc3c([nH]c4ccccc34)C(c3ccccc3)N2C(=O)CN1C1CCN(Cc2ccccc2)CC1` (stereo partly specified), in assay [10], the IC50 was > 100 µM (active).
In the case of `CC(C)(C)c1ccc(OCCON2C(=O)CCC2=O)c(Cl)c1`, the concentration for a half-maximal effect (EC50) in assay [11] is 18.3 µM (active); in [12], > 120 µM (not active); in assay [13], 13.6 µM (active).
As to `O=C(CN1C(=O)COc2ccc(Cl)cc21)Nc1ccc2c(c1)OCCO2`, the EC50 in assay [8] and in assay [9] was > 350 µM (not active) throughout.
With `Nc1[nH]c(N=NC(=O)c2ccccc2O)c2ccccc12`, the IC50 in assay [10] is 24.5 µM (active).
On to `CC(C)Oc1ccc(C2CC(=O)N(Nc3ccc([N+](=O)[O-])cc3[N+](=O)[O-])C2=O)cc1` (stereo unspecified), for which the IC50 in assay [1] is 0.577 µM (active); in [2], 0.846 µM (active).
`Cn1c(N)c(C(=O)COC(=O)c2cc(C3CC3)nc3ccccc23)c(=O)n(Cc2ccccc2)c1=O`: the AC50 in assay [14] is 15.8 µM (inconclusive).
For the compound `COc1ccccc1/C=C1\SC(NNC(=O)c2cccc(Br)c2)=NC1=O`, the AC50 in [3] is 2.09 µM (active).
As to `COc1ccc(NC(=O)Cn2nnc(-c3ccccc3NS(=O)(=O)c3ccccc3)n2)cc1`, the results for the AC50 in [5], in assay [6] and in assay [7] were 9.81 µM (active), 16.1 µM (active) and 0.485 µM (active), respectively.
On to `COc1ccccc1OCC(O)Cn1c(=N)n(Cc2ccccc2)c2ccccc21` (stereo unspecified), for which the values for the AC50 in [5], in assay [6] and in assay [7] were 22.1 µM (active), 10.7 µM (active) and 4.01 µM (active), respectively.
On to `CC(C)c1onc(C(=O)Nc2sc3c(c2C#N)CCC3)c1[N+](=O)[O-]`, for which the EC50 in assay [8] and in [9] was > 350 µM (not active) throughout.
Take `CCCCCCCN1C(Nc2ccccc2)=NC[C@@H]1Cc1ccccc1`: the AC50 is 23 µM (active) in assay [5], 6.34 µM (active) in [6] and 4.82 µM (active) in [7].
For `O=C(CCNC(=O)c1ccc([N+](=O)[O-])cc1)NCCc1ccccc1`, the IC50 was 10.3 µM (active) in [1] and 11.2 µM (active) in assay [2].
For the compound `CCOC(=O)c1[nH]c(C)c(C(=O)OCc2ccccc2F)c1C`, the AC50 in assay [3] was 0.633 µM (active).
Turning to `COc1ccc(-c2cc(-c3cccnc3)c(C#N)c(N)n2)cc1`, the values for the EC50 in assay [11], in assay [12] and in [13] were 23 µM (active), 22 µM (active) and 12.7 µM (active), respectively.
Regarding `CC(C)(/N=N/C(C)(C)C(=N)N)C(=N)N`, the AC50 in assay [14] was 39.8 µM (inconclusive).
In the case of `COc1cc2cc(C(=O)N3CCN(Cc4ccc5c(c4)OCO5)CC3)[nH]c2cc1OC`, the EC50 in assay [11] is on record as > 120 µM (not active); in assay [12], > 120 µM (not active); in [15], > 112 µM (not active); in [16], > 112 µM (not active); in [13], > 120 µM (not active).
In the case of `Cc1ccc(-c2cc(C(F)(F)F)n3nc(C(=O)Nc4c(C)n(C)n(-c5ccccc5)c4=O)cc3n2)cc1`, the EC50 in assay [8] and in [9] was > 350 µM (not active) throughout.
Take `COC1=C[C@H]2[C@H]3Cc4ccc(OC)c(O)c4[C@@]2(CCN3C)CC1=O`: in [14], the AC50 is 31.6 µM (inconclusive).
Regarding `COc1ccc(Oc2c(C)oc3cc(OC(=O)N4CCOCC4)ccc3c2=O)cc1`, the EC50 was 59.2 µM (active) in [11], > 120 µM (not active) in assay [12] and > 120 µM (not active) in assay [13].
In the case of `Oc1cc(Cl)ccc1Cl`, in assay [14], the AC50 is 31.6 µM (inconclusive).
Consider `COC(=O)C(C(=O)OC)C1O[C@@]23COCCC2(C)C3c2ccccc21` (stereo partly specified), for which the AC50 in [14] was 3.16 µM (inconclusive).
`CCCCCCn1c(SCC(C)C)nc2c1c(=O)[nH]c(=O)n2C`: the EC50 was 18.8 µM (active) in assay [11], 15.4 µM (active) in assay [12] and > 120 µM (not active) in assay [13].
Regarding `Cc1ccc([N+](=O)[O-])cc1NC(=O)CCSc1ccc(Cl)cc1`, the IC50 is 6.23 µM (active) in [1] and 7.75 µM (active) in [2].
`CCOC(=O)CSC1=C(C#N)C(c2sccc2C)CC(=O)N1` (stereo unspecified): the AC50 is 15.8 µM (inconclusive) in assay [17] and 0.722 µM (active) in assay [3].
`CCc1cccc(NC(=O)COC(=O)c2cc([N+](=O)[O-])ccc2N2CCOCC2)c1`: the figures for the IC50 in assay [1] and in [2] were 0.29 µM (active) and 0.393 µM (active), respectively.
Regarding `COc1cc(-c2ccc3oc(-c4cccc(C)c4)c(C#CC4(O)CCCCC4)c3c2)cc(OC)c1OC`, in assay [3], the AC50 is 8.67 µM (active).
Turning to `Cc1ccc(-c2nnc(COC(=O)c3cc(O)nc4ccccc34)o2)cc1`, the IC50 was 10.4 µM (active) in assay [1] and 9.54 µM (active) in assay [2].
Broadly, the GI50 is the concentration at which growth is held to half of that of the control. `CN(C)C(=O)N(CCCl)N=O`: the GI50 in [18], in assay [19] and in [20] was > 100 µM (inactive) each time.
With `CCCCc1nccc2c(C)c3[nH]c4ccccc4c3cc12`, the GI50 in assay [18] is 2.14 µM (inactive); in assay [19], 2 µM (inactive); in assay [20] it was 1.77 µM (inactive).
On the same counts, the results for `CN(C)CC1CC/C(=C\c2ccc(Cl)cc2)C1=O` (stereo unspecified) are 2.21 µM (inactive), 0.509 µM (active) and 0.31 µM (active).
On the same counts, the results for `Cc1ccc(S(=O)(=O)Oc2cc(-c3ccccc3)nc3ccccc23)cc1` are 1.61 µM (inactive), 1.91 µM (inactive) and 1.15 µM (inactive).
For `O=S1(=O)C(=C(c2ccccc2)c2ccccc2)S(=O)(=O)c2ccccc21` the same measures were 28.2 µM (inactive), > 100 µM (inactive) and > 31.6 µM (inactive).
Turning to `CCCCCCCCCCCC[S+](C)C`, the results for the GI50 in [18], in assay [19] and in [20] were 5.33 µM (inactive), 27.8 µM (inactive) and 0.236 µM (active), respectively.
For `COc1ccc2c(c1)CCc1c(CO)c(COC(=O)NC(C)C)n(C)c1-2` the same measures were 3.32 µM (inactive), 2.2 µM (inactive) and 1.17 µM (inactive).
Consider `O=C(COC(=O)c1cc([N+](=O)[O-])ccc1N1CCOCC1)NCc1ccccc1`, for which the IC50 was 0.841 µM (active) in assay [1] and 0.683 µM (active) in [2].
`O=c1[nH]c(=O)n([C@H]2CCCO2)cc1F`: the GI50 was 369 µM (inactive) in assay [18], 37.7 µM (inactive) in assay [19] and 24.3 µM (inactive) in assay [20].
Take `O=c1c2ccccc2nc(COc2ccccc2)n1/N=C/c1ccc(O)cc1O`: the AC50 in assay [4] is 4.63 µM (active). Further, the EC50 in [21] is 2.48 µM (active); in assay [22], 8.68 µM (active); in assay [8], 10.6 µM (active); in [9], 31.9 µM (active).
`Cc1c2ccccc2c(C)c2c1ccc1ccccc12`: in assay [14], the AC50 is 12.6 µM (inconclusive).
Take `O=C(/C=C/c1ccccc1)c1ccc(O)cc1` [4'-HYDROXYCHALCONE]: in [14], the AC50 was 39.8 µM (inconclusive).
On to `O=C1C=CC(=O)c2c(O)cccc21` [JUGLONE], for which the AC50 in assay [14] is 39.8 µM (inconclusive).
As for `CNNCc1ccc(C(=O)NC(C)C)cc1` [PROCARBAZINE HYDROCHLORIDE], the GI50 in assay [18] was > 456 µM (inactive); in assay [19], > 485 µM (inactive); in assay [20], > 500 µM (inactive).
